Data: PMC3068151 (PLoS ONE, 2011)

How the values were obtained:
PC3 cells = assay: PC3 cell binding / adhesion assay (MTT readout); type: cell-based, human
Description: 96 well ELISA high binding plates were incubated overnight at 4°C with ephrinA1-Fc 1 µg/cm^2, 100 µl per well. The plates were washed three times with PBS and blocked for 1 hour with BSA 1%. Cells were treated with proper concentration of substance or DMSO 0.5% for 30 minutes in vials on a shaker. After that, plates were washed with PBS and incubated with 100 µl 5×10^5 cells/ml for 1 hour at 37°C. Finally, plates were washed with PBS and adhering cells were quantified using MTT colorimetric assay.
96-wells plates for cell culture were untretaed (A) or coated with 1 µg/cm^2 ephrinA1-Fc (B) overnight. PC3 cells were treated with the indicated compounds for 30 minutes in a tube and let to adhere for 60 minutes on the wells. Cell adhesion is reported normalizing adhesion of Fc to 100%. […] Data are the means of at least three independent experiment ± st. err. One-way ANOVA followed by Dunnet's post test was performed comparing Fc to all other column. No significant differences were detected for data in graph A. *, p<0.05, **,p<0.01.

IGFR1β = molecular target: T1, IGFR1β (Homo sapiens, UniProt P08069); assay: IGFR1β activity, alpha Technology; type: cell-based; conditions: 100 µM, 5 nM IGF1
T1 construct: in HepG2 or A431 cells, respectively; endogenous in cells; host or cells: A431 according to b24; HepG2 according to the order in the legend b55
Description: Cells were stimulated with 5 nM IGF1 or 100 nM insulin for 10 minutes, lysed and a fluorescence acceptor (alphaLISA protein A beads coated with anti-phospho-IRKβ or -IGFR1β) added for 2 hours. A fluorescence donor (streptavidin coupled-beads) coated with an antibody towards IRKβ or IGFR1β was incubated for 2 hours and the signal was measured at λex = 680 nm and λem = 500 nm and 600 nm using a microplate reader (EnVision, Perkin Elmer, Waltham, MA, USA).
These assays were performed at CEREP (Celle L'Evescault, France).
A, B) EGFR phosphorylation was induced by 30 ng/ml and 10 ng/ml EGF on PC3 (A) and HT29 (B) cells, respectively. […] Data are the means of two experiments ± st. err.

T1 sequence (P08069 741-1367 limits assumed): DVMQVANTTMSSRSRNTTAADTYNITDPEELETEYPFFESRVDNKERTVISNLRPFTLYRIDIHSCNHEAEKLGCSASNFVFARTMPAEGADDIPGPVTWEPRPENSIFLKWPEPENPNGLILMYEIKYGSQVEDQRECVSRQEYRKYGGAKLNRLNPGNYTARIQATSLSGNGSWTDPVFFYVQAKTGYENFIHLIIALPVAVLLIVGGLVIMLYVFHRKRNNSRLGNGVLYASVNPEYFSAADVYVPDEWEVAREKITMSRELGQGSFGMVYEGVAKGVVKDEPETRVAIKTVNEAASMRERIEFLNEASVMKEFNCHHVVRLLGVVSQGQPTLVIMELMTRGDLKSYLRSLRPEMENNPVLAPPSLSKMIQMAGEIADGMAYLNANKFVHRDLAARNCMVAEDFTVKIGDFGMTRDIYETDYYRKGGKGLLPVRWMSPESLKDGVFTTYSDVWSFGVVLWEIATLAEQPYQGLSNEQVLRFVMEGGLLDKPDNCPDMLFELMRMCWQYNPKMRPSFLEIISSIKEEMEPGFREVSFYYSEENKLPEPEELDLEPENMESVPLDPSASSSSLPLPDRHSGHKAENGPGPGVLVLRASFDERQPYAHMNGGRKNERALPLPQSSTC
T1 sequence (P08069 31-736 partner limits assumed): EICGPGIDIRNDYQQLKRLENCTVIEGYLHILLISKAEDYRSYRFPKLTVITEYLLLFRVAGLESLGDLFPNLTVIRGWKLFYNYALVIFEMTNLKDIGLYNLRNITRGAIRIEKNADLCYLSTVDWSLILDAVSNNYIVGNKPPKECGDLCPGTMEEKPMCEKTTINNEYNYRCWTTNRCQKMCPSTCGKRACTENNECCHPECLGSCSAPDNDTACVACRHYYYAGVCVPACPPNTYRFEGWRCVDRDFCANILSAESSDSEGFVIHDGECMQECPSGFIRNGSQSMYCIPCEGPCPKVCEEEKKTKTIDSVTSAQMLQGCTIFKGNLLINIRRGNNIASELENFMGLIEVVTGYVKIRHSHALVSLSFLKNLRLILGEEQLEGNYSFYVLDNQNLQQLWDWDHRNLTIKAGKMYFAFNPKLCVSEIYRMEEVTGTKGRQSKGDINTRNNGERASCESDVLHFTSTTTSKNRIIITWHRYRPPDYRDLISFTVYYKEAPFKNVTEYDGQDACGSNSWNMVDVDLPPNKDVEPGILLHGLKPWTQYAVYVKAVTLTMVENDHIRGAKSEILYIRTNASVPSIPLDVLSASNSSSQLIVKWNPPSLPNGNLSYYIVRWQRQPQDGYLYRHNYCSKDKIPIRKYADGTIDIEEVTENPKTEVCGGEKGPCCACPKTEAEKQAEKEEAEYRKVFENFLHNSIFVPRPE

C[C@H](CCC(=O)O)[C@H]1CC[C@H]2[C@@H]3CC[C@@H]4C[C@H](O)CC[C@]4(C)[C@H]3CC[C@]12C [LCA, lithocholic acid]
PC3 adhesion to ephrinA1-Fc (PC3 cells; ephrinA1-Fc coated plates, increasing concentrations): dose-dependently inhibited | aspecific PC3 cell adhesion (PC3 cells; uncoated standard cell culture plates): neither ephrinA1-Fc nor LCA inhibited | effect on IGFR1β activity as agonist or antagonist (IGFR1β): failed to affect activity
